Values after ≈ are worked out from the molar mass of the structure shown. Active and inactive are the calls of the source. The rule behind the calls is not given here.
Tests used:
Candida parapsilosis = assay: Antifungal activity against Candida parapsilosis ATCC 22019 measured after 48 hrs by CLSI M27-A3 protocol based method; assay type: functional; details: Lodderomyces parapsilosis, ATCC 22019, 48 h
[1] = Hemolytic activity in mouse RBC at […] after 1 hr relative to control; assay type: ADME, cell-based, Erythrocyte; details: red blood cells (erythrocytes), read-out: Activity; also: tested at 0.48 µg/mL
BEAS-2B = assay: Cytotoxicity against human BEAS2B cells after 24 hrs by resazurin based assay; assay type: cell-based
[2] = Selectivity index, ratio of CC50 for human A549 cells to MIC for Aspergillus terreus ATCC MYA-3633; assay type: toxicity; details: read-out: Selectivity Index
[3] = Selectivity index, ratio of compound concentration showing <20 to <25% hemolysis in mouse RBC to MIC for fluconazole/ITC-resistant Candida albicans ATCC 64124; assay type: toxicity; details: red blood cells (erythrocytes), read-out: Selectivity Index
[4] = Selectivity index, ratio of CC50 for human A549 cells to MIC for fluconazole/ITC-resistant Candida albicans ATCC MYA-1237; assay type: toxicity; details: read-out: Selectivity Index
Staphylococcus aureus = assay: Antibacterial activity against methicillin-resistant Staphylococcus aureus; assay type: functional, organism-based
Candida albicans [5] = assay: Antifungal activity against fluconazole/ITC-resistant Candida albicans ATCC 10231 measured after 48 hrs by CLSI M27-A3 protocol based method; assay type: functional; details: ATCC 10231, 48 h
Nakaseomyces glabratus = assay: Antifungal activity against Candida glabrata ATCC 2001 measured after 48 hrs by CLSI M27-A3 protocol based method; assay type: functional; details: CBS 138, 48 h
[6] = Selectivity index, ratio of CC50 for human A549 cells to MIC for Candida krusei ATCC 6258; assay type: toxicity; details: read-out: Selectivity Index
Enterococcus = assay: Antibacterial activity against vancomycin-resistant Enterococcus; assay type: functional, organism-based
[7] = Selectivity index, ratio of CC50 for human A549 cells to MIC for fluconazole/ITC-resistant Candida albicans ATCC 64124; assay type: toxicity; details: read-out: Selectivity Index
[8] = Selectivity index, ratio of CC50 for human A549 cells to MIC for Candida parapsilosis ATCC 22019; assay type: toxicity; details: read-out: Selectivity Index
[9] = Selectivity index, ratio of compound concentration showing <20 to <25% hemolysis in mouse RBC to MIC for fluconazole/ITC-resistant Candida albicans ATCC MYA-1237; assay type: toxicity; details: red blood cells (erythrocytes), read-out: Selectivity Index
[10] = Selectivity index, ratio of CC50 for human A549 cells to MIC for fluconazole/ITC-susceptible Candida albicans ATCC MYA-2310; assay type: toxicity; details: read-out: Selectivity Index
Candida albicans [11] = assay: Antifungal activity against fluconazole/ITC-susceptible Candida albicans ATCC MYA-2876 measured after 48 hrs by CLSI M27-A3 protocol based method; assay type: functional; details: ATCC MYA-2876, 48 h
[12] = Hemolytic activity in mouse RBC at 1.95 ug/ml after 1 hr relative to control; assay type: ADME, cell-based, Erythrocyte; details: red blood cells (erythrocytes), read-out: Activity
[13] = Selectivity index, ratio of CC50 for human A549 cells to MIC for Aspergillus nidulans ATCC 38163; assay type: toxicity; details: read-out: Selectivity Index
[14] = Selectivity index, ratio of compound concentration showing <20 to <25% hemolysis in mouse RBC to MIC for fluconazole/ITC-susceptible Candida albicans ATCC MYA-2876; assay type: toxicity; details: red blood cells (erythrocytes), read-out: Selectivity Index
Candida albicans [15] = assay: Antifungal activity against fluconazole/ITC-susceptible Candida albicans ATCC MYA-2310 measured after 48 hrs by CLSI M27-A3 protocol based method; assay type: functional; details: ATCC MYA-2310, 48 h
[16] = Hemolytic activity in mouse RBC at […] ug/ml after 1 hr relative to control; assay type: ADME, cell-based, Erythrocyte; details: red blood cells (erythrocytes), read-out: Activity
Candida albicans [17] = assay: Antifungal activity against fluconazole/ITC-resistant Candida albicans ATCC 90819 measured after 48 hrs by CLSI M27-A3 protocol based method; assay type: functional; details: ATCC 90819, 48 h
[18] = Selectivity index, ratio of CC50 for human A549 cells to MIC for fluconazole/ITC-resistant Candida albicans ATCC 10231; assay type: toxicity; details: read-out: Selectivity Index
[19] = Selectivity index, ratio of compound concentration showing <20 to <25% hemolysis in mouse RBC to MIC for fluconazole/ITC-resistant Candida albicans ATCC MYA-1003; assay type: toxicity; details: red blood cells (erythrocytes), read-out: Selectivity Index
Candida albicans [20] = assay: Antifungal activity against fluconazole/ITC-resistant Candida albicans ATCC MYA-1003 measured after 48 hrs by CLSI M27-A3 protocol based method; assay type: functional; details: ATCC MYA-1003, 48 h
[21] = Hemolytic activity in mouse RBC at 3.9 ug/ml after 1 hr relative to control; assay type: ADME, cell-based, Erythrocyte; details: red blood cells (erythrocytes), read-out: Activity
[22] = Selectivity index, ratio of compound concentration showing <20 to <25% hemolysis in mouse RBC to MIC for Aspergillus nidulans ATCC 38163; assay type: toxicity; details: red blood cells (erythrocytes), read-out: Selectivity Index
[23] = Hemolytic activity in mouse RBC at 62.5 ug/ml after 1 hr relative to control; assay type: ADME, cell-based, Erythrocyte; details: red blood cells (erythrocytes), read-out: Activity
[24] = Selectivity index, ratio of compound concentration showing <20 to <25% hemolysis in mouse RBC to MIC for Candida krusei ATCC 6258; assay type: toxicity; details: red blood cells (erythrocytes), read-out: Selectivity Index
Aspergillus flavus = assay: Antifungal activity against Aspergillus flavus ATCC MYA-3631 measured after 48 hrs by CLSI M38-A2 protocol based method; assay type: functional; details: ATCC MYA-3631, 48 h
Aspergillus terreus = assay: Antifungal activity against Aspergillus terreus ATCC MYA-3633 measured after 48 hrs by CLSI M38-A2 protocol based method; assay type: functional; details: ATCC MYA-3633, 48 h
Pichia kudriavzevii = assay: Antifungal activity against Candida krusei ATCC 6258 measured after 48 hrs by CLSI M27-A3 protocol based method; assay type: functional; details: ATCC 6258, 48 h
Candida albicans [25] = assay: Antifungal activity against fluconazole/ITC-resistant Candida albicans ATCC 64124 measured after 48 hrs by CLSI M27-A3 protocol based method; assay type: functional; details: ATCC 64124, 48 h
[26] = Selectivity index, ratio of CC50 for human A549 cells to MIC for fluconazole/ITC-resistant Candida albicans ATCC MYA-1003; assay type: toxicity; details: read-out: Selectivity Index
[27] = Selectivity index, ratio of compound concentration showing <20 to <25% hemolysis in mouse RBC to MIC for fluconazole/ITC-resistant Candida albicans ATCC 90819; assay type: toxicity; details: red blood cells (erythrocytes), read-out: Selectivity Index
[28] = Hemolytic activity in mouse RBC at 7.8 ug/ml after 1 hr relative to control; assay type: ADME, cell-based, Erythrocyte; details: red blood cells (erythrocytes), read-out: Activity
[29] = Selectivity index, ratio of compound concentration showing <20 to <25% hemolysis in mouse RBC to MIC for Aspergillus terreus ATCC MYA-3633; assay type: toxicity; details: red blood cells (erythrocytes), read-out: Selectivity Index
[30] = Hemolytic activity in mouse RBC at 31.3 ug/ml after 1 hr relative to control; assay type: ADME, cell-based, Erythrocyte; details: red blood cells (erythrocytes), read-out: Activity
[31] = Selectivity index, ratio of compound concentration showing <20 to <25% hemolysis in mouse RBC to MIC for fluconazole/ITC-resistant Candida albicans ATCC 10231; assay type: toxicity; details: red blood cells (erythrocytes), read-out: Selectivity Index
[32] = Selectivity index, ratio of CC50 for human A549 cells to MIC for Candida glabrata ATCC 2001; assay type: toxicity; details: read-out: Selectivity Index
Candida albicans [33] = assay: Antifungal activity against fluconazole/ITC-resistant Candida albicans ATCC MYA-1237 measured after 48 hrs by CLSI M27-A3 protocol based method; assay type: functional; details: ATCC MYA-1237, 48 h
Listeria monocytogenes = assay: Antibacterial activity against Listeria monocytogenes; assay type: functional, organism-based
[34] = Selectivity index, ratio of CC50 for human A549 cells to MIC for fluconazole/ITC-resistant Candida albicans ATCC 90819; assay type: toxicity; details: read-out: Selectivity Index
[35] = Selectivity index, ratio of CC50 for human A549 cells to MIC for fluconazole/ITC-susceptible Candida albicans ATCC MYA-2876; assay type: toxicity; details: read-out: Selectivity Index
[36] = Selectivity index, ratio of compound concentration showing <20 to <25% hemolysis in mouse RBC to MIC for fluconazole/ITC-susceptible Candida albicans ATCC MYA-2310; assay type: toxicity; details: red blood cells (erythrocytes), read-out: Selectivity Index
[37] = Selectivity index, ratio of compound concentration showing <20 to <25% hemolysis in mouse RBC to MIC for Candida parapsilosis ATCC 22019; assay type: toxicity; details: red blood cells (erythrocytes), read-out: Selectivity Index
[38] = Selectivity index, ratio of CC50 for human A549 cells to MIC for Aspergillus flavus ATCC MYA-3631; assay type: toxicity; details: read-out: Selectivity Index
[39] = Selectivity index, ratio of compound concentration showing <20 to <25% hemolysis in mouse RBC to MIC for Aspergillus flavus ATCC MYA-3631; assay type: toxicity; details: red blood cells (erythrocytes), read-out: Selectivity Index
Aspergillus nidulans = assay: Antifungal activity against Aspergillus nidulans ATCC 38163 measured after 48 hrs by CLSI M38-A2 protocol based method; assay type: functional; details: ATCC 38163, 48 h
A549 = assay: Cytotoxicity against human A549 cells after 24 hrs by resazurin based assay; assay type: cell-based; details: a549, 24 h
[40] = Selectivity index, ratio of compound concentration showing <20 to <25% hemolysis in mouse RBC to MIC for Candida glabrata ATCC 2001; assay type: toxicity; details: red blood cells (erythrocytes), read-out: Selectivity Index

C(=N\Nc1ccccc1)/c1ccc(-c2cccc(/C=N/Nc3ccccc3)c2)cc1 showed an MIC (Candida parapsilosis) of over 31.3 mg/L, a hemolysis at 1 h, […] [1] of 0% and a CC50 (BEAS-2B) of over 31 mg/L. It also gave a selectivity ratio [2] of 2, a selectivity ratio [3] of 1 to 32 and a selectivity ratio [4] of 1. For the same molecule, the Activity (Staphylococcus aureus) was “inactive”, the MIC (Candida albicans [5]) was 1.95 mg/L (≈ 4.99 µM) and the MIC (Nakaseomyces glabratus) was over 31.3 mg/L. The selectivity ratio [6] was 4, the Activity (Enterococcus) was “inactive” and the selectivity ratio [7] was 1. For the same molecule, the selectivity ratio [8] was 1, the selectivity ratio [9] was 1 to 32 and the selectivity ratio [10] was 1. For the same molecule, the MIC (Candida albicans [11]) was 31.3 mg/L (≈ 80.2 µM), the hemolysis at 1 h, 1.95 ug/ml [12] was 3.5% and the selectivity ratio [13] was 16. It also gave a selectivity ratio [14] of 1 to 32, an MIC (Candida albicans [15]) of 31.3 mg/L (≈ 80.2 µM) and a hemolysis at 1 h, 15.6 ug/ml ([16]; at 15.6 µg/mL) of 14.1%. The hemolysis at 1 h, 0.975 ug/ml [16] was 0%, the MIC (Candida albicans [17]) was 31.3 mg/L (≈ 80.2 µM) and the selectivity ratio [18] was 16. For the same molecule, the selectivity ratio [19] was 1 to 32, the MIC (Candida albicans [20]) was 3.9 mg/L (≈ 9.99 µM) and the hemolysis at 1 h, 3.9 ug/ml [21] was 1.5%. It also gave a selectivity ratio [22] of 1 to 32, a hemolysis at 1 h, 62.5 ug/ml [23] of 23.6% and a selectivity ratio [24] of 1 to 32. The MIC (Aspergillus flavus) was 3.9 mg/L (≈ 9.99 µM), the MIC (Aspergillus terreus) was 15.6 mg/L (≈ 39.9 µM) and the MIC (Pichia kudriavzevii) was 7.8 mg/L (≈ 20 µM). It also gave an MIC (Candida albicans [25]) of 31.3 mg/L (≈ 80.2 µM), a selectivity ratio [26] of 4 and a selectivity ratio [27] of 1 to 32. It also gave a hemolysis at 1 h, 7.8 ug/ml [28] of 8.5%, a selectivity ratio [29] of 1 to 32 and a hemolysis at 1 h, 31.3 ug/ml [30] of 16.7%. For the same molecule, the selectivity ratio [31] was 1 to 32, the selectivity ratio [32] was 1 and the MIC (Candida albicans [33]) was 31.3 mg/L (≈ 80.2 µM). The Activity (Listeria monocytogenes) was “inactive”, the selectivity ratio [34] was 1 and the selectivity ratio [35] was 1. The selectivity ratio [36] was 1 to 32, the selectivity ratio [37] was 1 to 32 and the selectivity ratio [38] was 8. For the same molecule, the selectivity ratio [39] was 1 to 32, the MIC (Aspergillus nidulans) was 1.95 mg/L (≈ 4.99 µM) and the CC50 (A549) was over 31 mg/L. For the same molecule, the selectivity ratio [40] was 1 to 32.

From ChEMBL document CHEMBL4411307, “N,N'-diaryl-bishydrazones in a biphenyl platform: Broad spectrum antifungal agents” (Eur J Med Chem, 2019)
